Measurements from US20250282799A1, “SUBSTITUTED PYRIDO[4,3-d]PYRIMIDINES AS KRAS MODULATORS” (Alterome Therapeutics, Inc., priority 2023, published 2025).
pIC50: −log10 of the molar value.

Tested on: KRAS G12V dependent lung adenocarcinoma cell line, NCI-H441
Experiment: Cellular pERK (Thr202/Tyr204) FRET/HTRF assay
Assay type: cell-based
Conditions: Homo sapiens, NCI-H441, cellular pERK (Thr202/Tyr204) HTRF, NCI-H441 cells
Procedure, shortened: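 NCI-H441 cells (KRAS G12V) were seeded and grown overnight at 37 °C, 5% CO2, then treated with compound in DMSO for 1 hr. Lysates were probed with a Eu3+-cryptate/d2 antibody sandwich against pERK1/2 Thr202/Tyr204 and read by HTRF at 665 nm; IC50 from curve fitting.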

SMILES	pIC50
[2H]C([2H])(Oc1nc(N2CCCC[C@H]3[C@H](F)[C@H]32)c2cnc(-c3cc(N)cc4ccc(C)c(C#C)c34)c(F)c2n1)[C@@]12CCCN1[C@H](C)[C@H](F)C2 [Example 417, 5-Ethynyl-4-(8-fluoro-2-(((2R,3R,7aS)-2-fluoro-3-methyltetrahydro-1H-pyrrolizin-7a(5H)-yl)methoxy-d2)-4-((1S,7R,8S)-8-fluoro-2-azabicyclo[5.1.0]octan-2-yl)pyrido[4,3-d]pyrimidin-7-yl)-6-methylnaphthalen-2-amine]	> 7.30
C#Cc1c(F)ccc2cc(N)cc(-c3ncc4c(N5CCOC[C@H]6[C@H](F)[C@H]65)nc(OC[C@@]56CCCN5[C@@H](C)[C@H](F)C6)nc4c3F)c12 [Example 278, 5-ethynyl-6-fluoro-4-(8-fluoro-2-(((2R,3S,7aS)-2-fluoro-3-methyltetrahydro-1H-pyrrolizin-7a(5H)-yl)methoxy)-4-((1S,7S,8S)-8-fluoro-5-oxa-2-azabicyclo[5.1.0]octan-2-yl)pyrido[4,3-d]pyrimidin-7-yl)naphthalen-2-amine]	> 7.30
[2H]C([2H])(Oc1nc(N2CCCOC3C2C3(Cl)Cl)c2cnc(-c3cc(N)cc4ccc(F)c(C#C)c34)c(F)c2n1)[C@@]12CCCN1C[C@H](F)C2 (stereo partly drawn) [Example 292, 4-(4-(8,8-dichloro-2-oxa-6-azabicyclo[5.1.0]octan-6-yl)-8-fluoro-2-(((2R,7aS)-2-fluorotetrahydro-1H-pyrrolizin-7a(5H)-yl)methoxy-d2)pyrido[4,3-d]pyrimidin-7-yl)-5-ethynyl-6-fluoronaphthalen-2-amine]	6.30 to 7.30
[2H]C([2H])(Oc1nc(N2CCOC[C@@H]3[C@@H](F)[C@@H]32)c2cc(Cl)c(-c3nc(N)cc(C)c3C(F)(F)F)c(F)c2n1)[C@@]12CCCN1C[C@H](F)C2 [Example 160, 6-(6-chloro-8-fluoro-4-((1R,7R,8R)-8-fluoro-5-oxa-2-azabicyclo[5.1.0]octan-2-yl)-2-(((2R,7aS)-2-fluorotetrahydro-1H-pyrrolizin-7a(5H)-yl)methoxy-d2)quinazolin-7-yl)-4-methyl-5-(trifluoromethyl)pyridin-2-amine]	6.30 to 7.30
[2H]C([2H])([2H])Oc1c(F)cc(F)c2cc(N)cc(-c3ncc4c(N5CCC=C[C@H]6[C@H](F)[C@H]65)nc(OC([2H])([2H])[C@@]56CCCN5C[C@H](F)C6)nc4c3F)c12 [Example 149, 6,8-difluoro-4-(8-fluoro-4-((1S,7R,8S)-8-fluoro-2-azabicyclo[5.1.0]oct-5-en-2-yl)-2-(((2R,7aS)-2-fluorotetrahydro-1H-pyrrolizin-7a(5H)-yl)methoxy-d2)pyrido[4,3-d]pyrimidin-7-yl)-5-(methoxy-d3)naphthalen-2-amine]	> 7.30
[2H]C([2H])(Oc1nc(N2CCOC[C@@H]3C(F)[C@@H]32)c2cc(F)c(-c3cc(N)cc(C)c3C(F)(F)F)c(F)c2n1)[C@@]12CCCN1C[C@H](F)C2 (stereo in doubt) [Example 170, 3-(6,8-difluoro-4-((1R,7R,8R)-8-fluoro-5-oxa-2-azabicyclo[5.1.0]octan-2-yl)-2-(((2R,7aS)-2-fluorotetrahydro-1H-pyrrolizin-7a(5H)-yl)methoxy-d2)quinazolin-7-yl)-5-methyl-4-(trifluoromethyl)aniline]	5.00 to 6.30
C#Cc1c(F)c(F)cc2cccc(-c3ncc4c(N5CCOC[C@@H]6[C@@H](F)[C@@H]65)nc(OC[C@@]56CCCN5CC(=C(F)F)C6)nc4c3F)c12 [Example 106, (1R,7R,8R)-2-(2-(((S)-2-(difluoromethylene)tetrahydro-1H-pyrrolizin-7a(5H)-yl)methoxy)-7-(8-ethynyl-6,7-difluoronaphthalen-1-yl)-8-fluoropyrido[4,3-d]pyrimidin-4-yl)-8-fluoro-5-oxa-2-azabicyclo[5.1.0]octane]	5.00 to 6.30
[2H]C([2H])([2H])Oc1c(F)c(F)c(F)c2cccc(-c3ncc4c(N5CCCC[C@H]6[C@H](F)[C@H]65)nc(OC([2H])([2H])[C@@]56CCCN5C[C@H](F)C6)nc4c3F)c12 [Example 110, 8-fluoro-4-((1S,7R,8S)-8-fluoro-2-azabicyclo[5.1.0]octan-2-yl)-2-(((2R,7aS)-2-fluorotetrahydro-1H-pyrrolizin-7a(5H)-yl)methoxy-d2)-7-(5,6,7-trifluoro-8-(methoxy-d3)naphthalen-1-yl)pyrido[4,3-d]pyrimidine]	5.00 to 6.30
[2H]C([2H])(Oc1nc(N2CCOC[C@H]3[C@H](F)[C@H]32)c2cc(Cl)c(-c3cc(N)c(F)c(C)c3C(F)(F)F)c(F)c2n1)[C@@]12CCCN1C[C@H](F)C2 [Example 190, 5-(6-chloro-8-fluoro-4-((1S,7S,8S)-8-fluoro-5-oxa-2-azabicyclo[5.1.0]octan-2-yl)-2-(((2R,7aS)-2-fluorotetrahydro-1H-pyrrolizin-7a(5H)-yl)methoxy-d2)quinazolin-7-yl)-2-fluoro-3-methyl-4-(trifluoromethyl)aniline]	6.30 to 7.30
C#Cc1c(F)ccc2cc(N)cc(-c3ncc4c(N5CCOC[C@H]6[C@H](F)[C@H]65)nc(OC[C@]56C[C@]7(C[C@@H]7F)CN5CCC65CC5)nc4c3F)c12 (single isomer, unassigned) [Example 232]	> 7.30
[2H]C([2H])(Oc1nc(N2CCOC[C@H]3[C@H](F)[C@H]32)c2cnc(-c3cc(O)cc(C)c3C(F)(F)F)c(F)c2n1)[C@@]12CCCN1C[C@H](F)C2 [Example 335, 3-(8-fluoro-4-((1S,7S,8S)-8-fluoro-5-oxa-2-azabicyclo[5.1.0]octan-2-yl)-2-(((2R,7aS)-2-fluorotetrahydro-1H-pyrrolizin-7a(5H)-yl)methoxy-d2)pyrido[4,3-d]pyrimidin-7-yl)-5-methyl-4-(trifluoromethyl)phenol]	> 7.30
[2H]C([2H])(F)Oc1c(F)c(F)cc2cccc(-c3ncc4c(N5CCCC[C@H]6[C@H](F)[C@H]65)nc(OC([2H])([2H])[C@@]56CCCN5C[C@H](F)C6)nc4c3F)c12 [Example 95, 7-(6,7-difluoro-8-(fluoromethoxy-d2)naphthalen-1-yl)-8-fluoro-4-((1S,7R,8S)-8-fluoro-2-azabicyclo[5.1.0]octan-2-yl)-2-(((2R,7aS)-2-fluorotetrahydro-1H-pyrrolizin-7a(5H)-yl)methoxy-d2)pyrido[4,3-d]pyrimidine]	> 7.30
[2H]C([2H])([2H])Oc1c(F)cc(F)c2cccc(-c3ncc4c(N5CCCC[C@H]6[C@H](F)[C@H]65)nc(OC([2H])([2H])[C@@]56CCCN5C[C@H](F)C6)nc4c3F)c12 [Example 140, 7-(5,7-difluoro-8-(methoxy-d3)naphthalen-1-yl)-8-fluoro-4-((1S,7R,8S)-8-fluoro-2-azabicyclo[5.1.0]octan-2-yl)-2-(((2R,7aS)-2-fluorotetrahydro-1H-pyrrolizin-7a(5H)-yl)methoxy-d2)pyrido[4,3-d]pyrimidine]	6.30 to 7.30
C#Cc1c(F)ccc2cc(O)cc(-c3ncc4c(N5CCCO[C@@H]6C[C@@H]65)nc(OC[C@H]5CCCN5C)nc4c3F)c12 [Example 280, 4-(4-((1R,7S)-2-oxa-6-azabicyclo[5.1.0]octan-6-yl)-8-fluoro-2-(((R)-1-methylpyrrolidin-2-yl)methoxy)pyrido[4,3-d]pyrimidin-7-yl)-5-ethynyl-6-fluoronaphthalen-2-ol]	6.30 to 7.30

Same assay, conditions: Homo sapiens, NCI-H441, cellular pERK HTRF, NCI-H441 (KRAS G12V) cells

SMILES	pIC50
[2H]C([2H])(Oc1nc(N2CCCC[C@H]3[C@H](F)[C@H]32)c2cnc(-c3cc(N)cc4ccc(F)c(C#C)c34)c(C)c2n1)[C@]12CC(=C)CN1CCC21CC1 [Example 458, 5-Ethynyl-6-fluoro-4-(4-((1S,7R,8S)-8-fluoro-2-azabicyclo[5.1.0]octan-2-yl)-8-methyl-2-(((R)-6′-methylenetetrahydrospiro[cyclopropane-1,1′-pyrrolizin]-7a′(5′H)-yl)methoxy-d2)pyrido[4,3-d]pyrimidin-7-yl)naphthalen-2-amine]	> 7.30
[2H]C([2H])(Oc1nc(N2CCOC[C@H]3[C@H](F)[C@H]32)c2cnc(-c3cc(N)cc4ccc(F)c(C#C)c34)c(C)c2n1)[C@@]12CCCN1CC(=C)C2 [Example 436, 5-Ethynyl-6-fluoro-4-(4-((1S,7S,8S)-8-fluoro-5-oxa-2-azabicyclo[5.1.0]octan-2-yl)-8-methyl-2-(((S)-2-methylenetetrahydro-1H-pyrrolizin-7a(5H)-yl)methoxy-d2)pyrido[4,3-d]pyrimidin-7-yl)naphthalen-2-amine]	> 7.30

Same assay, conditions: Homo sapiens, NCI-H441, pERK HTRF, NCI-H441 cells (KRAS G12V)

SMILES	pIC50
[2H]C([2H])(Oc1nc(N2CCCO[C@H]3[C@H](F)[C@H]32)c2cnc(-c3cccc4cc(F)c(F)c(C#C)c34)c(F)c2n1)[C@@]12CCCN1C[C@H](F)C2 [Example 76, (1R,7S,8R)-6-(7-(8-Ethynyl-6,7-difluoronaphthalen-1-yl)-8-fluoro-2-(((2R,7aS)-2-fluorotetrahydro-1H-pyrrolizin-7a(5H)-yl)methoxy-d2)pyrido[4,3-d]pyrimidin-4-yl)-8-fluoro-2-oxa-6-azabicyclo[5.1.0]octane]	> 7.30

Same assay, conditions: cellular pERK HTRF, NCI-H441 (KRAS G12V) cells

SMILES	pIC50
[2H]C([2H])(Oc1nc(N2CCOC[C@H]3[C@H](F)[C@H]32)c2cc(F)c(-c3ccc(F)c4sc(N)c(C#N)c34)c(C)c2n1)[C@@]12CCCN1C[C@H](F)C2 (atropisomer, axis not shown; (aS)) [Example 451, 2-amino-7-fluoro-4-((R)-6-fluoro-4-((1S,7S,8S)-8-fluoro-5-oxa-2-azabicyclo[5.1.0]octan-2-yl)-2-(((2R,7aS)-2-fluorotetrahydro-1H-pyrrolizin-7a(5H)-yl)methoxy-d2)-8-methylquinazolin-7-yl)benzo[b]thiophene-3-carbonitrile]	> 7.30
